Laboratory results: ChEMBL document CHEMBL5029195, “Substituted Imidazole Carboxamides as Novel Antibacterial Agents” (2022)

system: Acinetobacter baumannii; test: Antibacterial activity against Acinetobacter baumannii ATCC 17961 assessed as inhibition of bacterial growth after 16 hrs by two fold dilution method; assay type: functional

| Structure (SMILES) | IC90 |
| --- | --- |
| CCc1cc(NC(=O)c2ncc(-c3ccc(OC)c(F)c3F)n2C)ccc1C(=O)N1CCN(CCCN(C)C)CC1 | 0.26 µM |
| COc1ccc(-c2cnc(C(=O)Nc3ccc(C(=O)N4CCC(OCCN)CC4)c(Cl)c3)n2C)c(F)c1F | 0.04 µM |
| COc1ccc(-c2cnc(C(=O)Nc3ccc(C(=O)N4CCC(C(=O)[C@H]5CCNC[C@H]5O)CC4)c(Cl)c3)n2C)c(F)c1F | 0.09 µM |
| COc1ccc(-c2cnc(C(=O)Nc3ccc(C(=O)N4CCC(C(=O)NCCC(=O)O)CC4)c(Cl)c3)n2C)c(F)c1F | 3.3 µM |
| Cn1c(-c2ccc(OC(F)F)c(F)c2F)cnc1C(=O)Nc1ccc(C(=O)N2CCC(C(=O)N3CCC(C(N)=O)C3)CC2)c(Cl)c1 (centres undefined) | 0.15 µM |
| Cn1c(-c2ccc(OC(F)F)c(F)c2F)cnc1C(=O)Nc1ccc(C(=O)N2CCC(C(=O)NC[C@H]3CCNC3)CC2)c(Cl)c1 | 0.04 µM |
| COc1ccc(-c2cnc(C(=O)Nc3ccc(C(=O)N4CCC(C(=O)[C@@H]5CCNC[C@H]5O)CC4)c(Cl)c3)n2C)c(F)c1F | 0.1 µM |
| COc1ccc(-c2cnc(C(=O)Nc3ccc(C(=O)N4CCC(CCN)CC4)c(Cl)c3)n2C)c(F)c1F | 0.03 µM |

system: Acinetobacter baumannii; test: Antibacterial activity against Acinetobacter baumannii ATCC 17978 assessed as inhibition of bacterial growth after 16 hrs by two fold dilution method; assay type: functional

| Structure (SMILES) | IC90 |
| --- | --- |
| Cn1c(-c2ccc(OCC#N)c(F)c2F)cnc1C(=O)Nc1ccc(C(=O)N2CCC(C(=O)N3CCSCC3)CC2)c(Cl)c1 | 0.21 µM |
| CN(C)CCCN1CCN(C(=O)c2ccc(NC(=O)c3ncc(-c4ccc(OCC#N)c(F)c4F)n3C)cc2Cl)CC1 | 0.07 µM |
| CNCCN1CCN(C(=O)c2ccc(NC(=O)c3ncc(-c4ccc(OC)c(F)c4F)n3C)cc2Cl)CC1 | 0.08 µM |
| COc1ccc(-c2cnc(C(=O)Nc3ccc(C(=O)N4CCC(CN)CC4)c(Cl)c3)n2C)c(F)c1F | 0.3 µM |
| COc1ccc(-c2cnc(C(=O)Nc3ccc(C(=O)N4CCN(C(=O)[C@@H]5C[C@@H](O)CN5)CC4)c(Cl)c3)n2C)c(F)c1F | 0.1 µM |
| CCc1cc(NC(=O)c2ncc(-c3ccc(OC)cc3Cl)n2C)ccc1C(=O)N1CCN(CCNC)CC1 | 2.3 µM |
